# Test results from PubChem BioAssay (NCI).
# Values joined by “and” are separate entries in the source; they are usually repeats but may differ in a detail not shown here. Equal entries are not always repeated.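 Each compound was tested at five concentrations against cells in 96-well plates for 48 hours. At the GI50, growth is halved. TGI: total growth inhibition.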
# Key:
# Assay in all cases: growth of human tumour cells (NCI), 48 h
# CCRF-CEM leukemia = test system: CCRF-CEM leukemia
# MALME-3M melanoma = test system: MALME-3M melanoma
# OVCAR-8 ovarian = test system: OVCAR-8 ovarian
# T-47D breast = test system: T-47D breast
# NCI/ADR-RES ovarian = test system: NCI/ADR-RES ovarian
# 786-0 renal = test system: 786-0 renal
# DLD-1 colon = test system: DLD-1 colon
# XF 498 CNS = test system: XF 498 CNS
# DMS 114 small cell lung = test system: DMS 114 small cell lung
# M19-MEL melanoma = test system: M19-MEL melanoma
# SNB-78 CNS = test system: SNB-78 CNS
# LXFL 529 NSCLC = test system: LXFL 529 NSCLC
# HOP-18 NSCLC = test system: HOP-18 NSCLC
# DMS 273 small cell lung = test system: DMS 273 small cell lung
# KM20L2 colon = test system: KM20L2 colon
SMILES,TGI (CCRF-CEM leukemia),TGI (MALME-3M melanoma),TGI (OVCAR-8 ovarian) [µM],TGI (T-47D breast),TGI (NCI/ADR-RES ovarian) [µM],TGI (786-0 renal) [µM],TGI (DLD-1 colon) [µM],TGI (XF 498 CNS) [µM],TGI (DMS 114 small cell lung) [µM],TGI (M19-MEL melanoma) [µM],TGI (SNB-78 CNS) [µM],TGI (LXFL 529 NSCLC) [µM],TGI (HOP-18 NSCLC) [µM],TGI (DMS 273 small cell lung) [µM],TGI (KM20L2 colon) [µM],GI50 (CCRF-CEM leukemia),GI50 (MALME-3M melanoma),GI50 (T-47D breast)
CNC1=C(C)C(=O)C(=O)C([C@H](C)CCC=C(C)C)=C1O,> 29.4 µM,> 68.6 µM,> 60.9,86.3 µM,> 38.4,> 95.3,–,–,–,–,–,–,–,–,–,–,–,–
CC(=O)OC1COC(n2c(O)c(N=NC(N)=S)c3cc(Br)ccc32)C(OC(C)=O)C1OC(C)=O (configuration not stated),> 100 µM,> 100 µM,> 100,–,–,> 100,> 100,> 100,> 100,> 100,> 100,> 100,> 100,> 100,> 100,–,–,–
COC1(OC)c2no[n+]([O-])c2CCC1O (configuration not stated),> 100 µM,> 100 µM,> 100,> 100 µM,> 100,> 100,–,–,–,–,–,–,–,–,–,–,–,–
COC1=C(OC)C(=O)C(Cc2c(Cl)nc3sc(C)cn23)=C(C)C1=O,8.73 µM,26.5 µM,41.2,> 100 µM,38.1,38.8,–,–,–,–,–,–,–,–,–,–,–,–
COC(=O)/C=C(/C)n1nc2ccccc2n1,> 100 µM,> 100 µM,> 100,> 100 µM,> 100,> 100,–,–,–,–,–,–,–,–,–,–,–,–
O=C(CC(=O)N(C(=O)/C=C\c1ccccc1)c1ccc(Cl)cc1)N1N=C(c2ccccc2)C(N=Nc2cccc([N+](=O)[O-])c2)C1=O (configuration not stated),38.5 µM,44.5 µM,> 100,> 100 µM,22,19.6,–,–,–,–,–,–,–,–,–,–,–,–
C(=C\c1cccs1)/c1cccc(/C=C/c2cccs2)n1,> 100 µM,3.21 µM,> 100,> 100 µM,> 100,> 100,–,–,–,–,–,–,–,–,–,–,–,–
COC(=O)C1(C(=O)OC)Cc2ccc(OC)cc2C2=C1C(=O)c1ccccc1C2=O,11.8 µM,26.3 µM,9.27,6.9 µM,> 28.4,> 47.9,–,–,–,–,–,–,–,–,–,–,–,–
O=C1C(Cl)C2(CC(/C=C/c3ccccc3Cl)=NN2c2cccc(S(=O)(=O)O)c2)N1c1nc2ccccc2s1 (configuration not stated),33.9 µM,> 100 µM,> 100,> 100 µM,> 100,62.3,–,–,–,–,–,–,–,–,–,–,–,–
C[N+](C)(C)CC(=O)N/N=C/c1oc(-c2c(O)ccc3ccccc23)c(-c2c(O)ccc3ccccc23)c1[N+](=O)[O-],76.7 µM,28.2 µM,78.6,–,–,44.3,54.6,55.5,–,60.8,–,> 100,62.8,–,36,–,–,–
Cc1cc2ccccc2n2c1nc1ccccc12,> 100 µM,> 100 µM,> 100,> 100 µM,> 100,> 100,–,–,–,–,–,–,–,–,–,–,–,–
CC(=O)OCC1=C(CCC#N)N2C(=O)C(NC(=O)Cc3cccs3)C2S(=O)C1 (configuration not stated),> 100 µM,> 100 µM,> 100,–,–,> 100,> 100,> 100,> 100,> 100,> 100,–,> 100,> 100,> 100,–,–,–
C=CCN1C(=O)/C(=C/c2ccc(OC)cc2)N=C1SC/C=C/C,> 100 µM,> 100 µM,80.1,94.2 µM,> 100,> 100,–,–,–,–,–,–,–,–,–,–,–,–
O=C(CN1CCCCC1)Nc1ccc2sc3ccccc3c(=O)c2n1,> 100 µM,49 µM,47.4,> 100 µM,36.1,37.2,–,–,–,–,–,–,–,–,–,–,–,–
OC1(c2cccs2)c2cccc(Cl)c2C(O)(c2cccs2)c2c(Cl)cccc21 (configuration not stated),> 100 µM,> 100 µM,> 100,> 100 µM,> 100,> 100,–,–,–,–,–,–,–,–,–,–,–,–
O=C(c1cccs1)N(C(=S)N1CCN(c2ccccn2)CC1)c1ccccc1,> 100 µM,> 100 µM,> 100,–,–,> 100,> 100,84,> 100,> 100,> 100,> 100,> 100,> 100,> 100,–,–,–
C=CCOc1cccc(C2(O)c3ccccc3C3=NCCCN32)c1 (configuration not stated),40.9 µM,35.1 µM,> 43.2,45.5 µM,> 75.6,25.2,–,–,–,–,–,–,–,–,–,–,–,–
O=C1CCC2C(O)c3cc4c(cc3C(c3ccc5c(c3)OCO5)N12)OCO4 (configuration not stated),> 100 µM,> 100 µM,> 100,> 100 µM,> 100,> 100,–,–,–,–,–,–,–,–,–,–,–,–
CCCCCCCCCCCCCCCCCCNc1ccn(C2OC(COP(=O)(O)OCC3OC(n4cc(F)c(=O)[nH]c4=O)CC3O)C(O)C2O)c(=O)n1 (configuration not stated),> 49.7 µM,> 100 µM,> 100,> 100 µM,> 54.8,> 100,–,–,–,–,–,–,–,–,–,–,–,–
CCOC(=O)/C(C#N)=C\c1ccc(N(CCC(=O)O)CCC(=O)O)c(I)c1,> 10 µM,> 10 µM,> 10,> 10 µM,> 10,> 10,–,–,–,–,–,–,–,–,–,–,–,–
N#Cc1c(-c2ccccc2)cc(-c2ccccc2)n(C2OC(CO)C(O)C(O)C2O)c1=S (configuration not stated),57.4 µM and > 100 µM,62.5 µM and > 100 µM,> 100,34.5 µM and > 100 µM,> 100,> 100,–,–,–,–,–,–,–,–,–,12.5 µM and 29.2 µM,24.9 µM and > 100 µM,6.51 µM and 29.1 µM
COc1ccc(-c2c(C#N)c(N)n(C3OCC(OC(C)=O)C(OC(C)=O)C3OC(C)=O)c(=S)c2C#N)cc1 (configuration not stated),77.8 µM and 98.3 µM,> 100 µM,> 100,81.6 µM and > 100 µM,> 100,> 100,–,–,–,–,–,–,–,–,–,–,–,–
CCOC(=O)c1cnc2oc3ccc(O)cc3c2c1C,> 100 µM,> 100 µM,> 100,> 100 µM,> 100,> 100,–,–,–,–,–,–,–,–,–,–,–,–
COc1ccc2c3c1O[C@]1(C)C34CCN(C)C(C2)C42C=C[C@@]1(OC)c1c(O)ccc(O)c12,> 100 µM,> 100 µM,> 100,–,–,> 100,> 100,> 100,> 100,–,> 100,> 100,> 100,> 100,> 100,–,–,–
